{
  "source": "patent US10342779B2",
  "about": "(Therapicon S.R.L., priority 2014, dated 2019)",
  "key": {"[1]": {"details": "rats, oral 10 mg/kg; cited from earlier work"}, "[2]": {"details": "dogs, oral 10 mg/kg; cited from earlier work"}, "[3]": {"tested_on": "mouse-adapted DENV-2 strain D2S10", "details": "for Survival at day 20: IV, 19 days after challenge"}, "[4]": {"details": "monkeys, oral 10 mg/kg; cited from earlier work"}, "[5]": {"details": "cited from earlier work"}, "[6]": {"details": "rat, injected 5 mg/kg; cited from earlier work"}, "[7]": {"details": "dog, intravenous 3 mg/kg; cited from earlier work"}, "[8]": {"details": "monkey, intravenous 3 mg/kg; cited from earlier work"}, "[9]": {"details": "man, intravenous administration; cited from earlier work"}, "CYP1A2": {"target": "T1, CYP1A2 (Homo sapiens, UniProt P05177)", "T1 sequence (P05177 1-516)": "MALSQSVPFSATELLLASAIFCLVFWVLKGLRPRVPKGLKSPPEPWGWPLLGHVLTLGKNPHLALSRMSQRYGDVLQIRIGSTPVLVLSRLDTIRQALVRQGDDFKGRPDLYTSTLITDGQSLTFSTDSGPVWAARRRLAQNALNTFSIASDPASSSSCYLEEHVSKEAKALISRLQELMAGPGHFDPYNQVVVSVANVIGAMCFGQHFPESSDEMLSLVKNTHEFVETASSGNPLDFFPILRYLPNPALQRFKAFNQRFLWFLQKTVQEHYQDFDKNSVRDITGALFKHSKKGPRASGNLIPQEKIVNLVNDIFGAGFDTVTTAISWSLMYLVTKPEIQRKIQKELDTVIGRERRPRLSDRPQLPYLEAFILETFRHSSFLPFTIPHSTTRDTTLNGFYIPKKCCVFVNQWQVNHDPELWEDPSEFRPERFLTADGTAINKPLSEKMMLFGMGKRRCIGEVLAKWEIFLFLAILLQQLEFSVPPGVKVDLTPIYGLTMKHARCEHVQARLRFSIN", "details": "cited from earlier work"}, "[10]": {"details": "cited from earlier work", "remark": "listed apart in the source"}},
  "note": "Where two headings read alike, the source gives them in different places.",
  "data": [
    {"smiles": "COc1ccc2[nH]cc(CCNC(C)=O)c2c1", "note": "[Melatonin, N-acetyl-5-methoxytryptamine]", "values": [
      {"measurement": "absolute bioavailability", "setting": "[1]", "result": "moderate"},
      {"measurement": "absolute bioavailability", "setting": "[2]", "result": "high"},
      {"measurement": "Survival at day 20", "setting": "[3]; 75 mg/kg body weight", "result": "4/6"},
      {"measurement": "Survival at day 20", "setting": "[3]; 100 mg/kg body weight", "result": "6/6"},
      {"measurement": "Survival at day 20", "setting": "[3]; 150 mg/kg body weight", "result": "6/6"},
      {"measurement": "protection effects versus Dengue virus induced condition", "setting": "[3]; 100 and 150 mg/Kg/day, 19 days treatment", "result": "Complete survival"},
      {"measurement": "absolute bioavailability", "setting": "[4]", "result": "high"},
      {"measurement": "median (range) elimination half life", "setting": "[5]; healthy volunteers, oral capsules 20, 30, 50, 100 mg, across all doses", "result": "51.7 (29.5-63.2) minutes"},
      {"measurement": "unchanged melatonin renal clearance", "setting": "[5]; human", "result": "lower than 1%"},
      {"measurement": "time of rapid decrease in serum melatonin", "setting": "[5]; oral 3 mg/volunteer", "result": 240, "unit": "min"},
      {"measurement": "time to increase in serum melatonin after oral administration", "setting": "[5]; oral 3 mg/volunteer", "result": "≤ 20", "unit": "min"},
      {"measurement": "half-life in blood", "setting": "[5]; oral 100 mg", "result": "around 41 minutes"},
      {"measurement": "time to maximum blood and saliva concentrations", "setting": "[5]; oral 100 mg", "result": 60, "unit": "min"},
      {"measurement": "AUC", "setting": "[5]; oral capsules 20 mg", "result": "1102 to 13616", "unit": "ng/mL/min"},
      {"measurement": "AUC", "setting": "[5]; oral capsules 30 mg", "result": "822 to 2491", "unit": "ng/mL/min"},
      {"measurement": "AUC", "setting": "[5]; oral capsules 50 mg", "result": "1812 to 8915", "unit": "ng/mL/min"},
      {"measurement": "AUC", "setting": "[5]; oral capsules 100 mg", "result": "4458 to 18229", "unit": "ng/mL/min"},
      {"measurement": "absolute human bioavailability, average", "setting": "[5]; oral, female", "result": 8.6, "unit": "%"},
      {"measurement": "absolute human bioavailability, average", "setting": "[5]; oral, male", "result": 16.8, "unit": "%"},
      {"measurement": "absolute human bioavailability, range", "setting": "[5]; oral", "result": "1-37%"},
      {"measurement": "inter-subject variation of AUC of individual subjects", "setting": "[5]; oral", "result": "up to 25 times"},
      {"measurement": "apparent elimination half-life", "setting": "[6]", "result": 19.8, "unit": "min"},
      {"measurement": "apparent elimination half-life", "setting": "[7]", "result": 18.6, "unit": "min"},
      {"measurement": "apparent elimination half-life", "setting": "[8]", "result": 33.9, "unit": "min"},
      {"measurement": "elimination half-life", "setting": "[9]", "result": "about 40 minutes"},
      {"measurement": "enzyme mediating 6-hydroxylation and O-demethylation", "setting": "CYP1A2", "result": "mainly CYP1A2 mediated"},
      {"measurement": "solubility in water", "setting": "[10]", "result": "1.2 to 2.4", "unit": "mg/mL"}
    ]}
  ]
}
